Several values for one entry are separate records, joined by “and”; a condition that tells them apart may be missing. Identical values can stand only once.
Assays:
[1] = tested on: dogs with intracoronary microembolization-induced chronic HF; assay: 3 months therapy with beta-blocker alone, beta-blocker + CCM or no therapy: LV EDV, ESV, EF; type: in vivo, dog
Protocol: In a set of experiments, dogs with intracoronary microembolization-induced chronic HF (LV EF 30%-40%) were randomized to 3 months therapy with either BB (beta-blockers) alone (extended release metoprolol succinate, 100 mg once daily), extended release metoprolol succinate (100 mg, once daily) combined with CCM therapy, or to no therapy at all (Control). LV end-diastolic volume (EDV), end-systolic volume (ESV) and EF were measured before randomization (PRE) and after 3 months of therapy (POST). To determine “treatment effect”, the change A between PRE and POST therapy for each group was compared among the 3 study groups.

[2] = tested on: human malignant glioma cell lines; settings: advertised; cited from earlier work
normal cells = settings: advertised; cited from earlier work
phospholamban serine-16 = assay: Phosphorylation of PLB at serine-16 in failed LV tissue homogenate with/without PK inhibitor and CCM signal (Western blot); type: biochemical, dog; settings: for P-PLB serine-16: single samples
Protocol: (§1) The tissue homogenate was prepared in the following manner. […] The homogenate was then filtered through 4 layers of cheese cloth. The resulting homogenate was stored in ice and its protein concentration was determined by the Lowry method.
(§2) The CCM signals were delivered to the homogenate as follows. The homogenate was diluted 2 fold in homogenate buffer and subsequently aliquotted 3 ml each in assay tubes. Assay tubes were divided into 2 sets (Set A and Set B), each subset consisting of […]. CCM signals were delivered for 10″, 30″, 1′, 5′, 30′, and 60′ in one of the sets, while the other set served as time control. The reaction was stopped by adding concentrated SDS. Protein assay on all the samples were performed by Lowry method.
(§3) Additional experiments of tissue homogenate were carried out in the presence and absence of protein kinese inhibitors. The homogenate was the same as above, from dogs with heart failure. […] CAS 62996-74-1.

platelet aggregation = settings: advertised; cited from earlier work
[3] = tested on: phospholamban threonin-17; assay: Phosphorylation of PLB at threonine-17 in failed LV tissue homogenate with/without PK inhibitor and CCM signal (Western blot); type: biochemical, dog; settings: for P-PLB threonin-17: single samples; for P-PLB threonin-17, Av: average
Protocol: as §1, §2, §3
The following tables summarize the experimental results for theronin-17: […]

[4] = Control + PK Inhibitor, no CCM, 10 sec
[5] = Control + PK Inhibitor, no CCM, 20 sec
[6] = Control + PK Inhibitor, no CCM, 30 sec
[7] = PK Inhibitor + CCM delivered for 60 sec

COCCc1ccc(OCC(O)CNC(C)C)cc1 (stereo not drawn) [BB, metoprolol succinate]
LV EDV ([1]; BB alone): prevented the increase in EDV | LV EF ([1]; BB alone): significantly increased EF | LV ESV ([1]; BB alone): significantly reduced ESV | LV EDV ([1]; BB combined with CCM): prevented the increase in EDV | LV EF ([1]; BB combined with CCM): significantly increased EF | LV ESV ([1]; BB combined with CCM): significantly reduced ESV | Treatment effect (Δ) LV EF, PRE to POST ([1]; BB combined with CCM therapy): 12±1%

CN[C@@H]1C[C@H]2O[C@@](C)([C@@H]1OC)n1c3ccccc3c3c4c(c5c6ccccc6n2c5c31)C(=O)NC4 [STAUROSPORIN]
apoptosis [2]: Induces apoptosis | cell cycle arrest (normal cells): Arrests normal cells at the G1 checkpoint | P-PLB serine-16 (phospholamban serine-16; [4]): 8.0 and 9.0 | P-PLB serine-16 (phospholamban serine-16; [5]): 12.2 and 14.0 | P-PLB serine-16, Av (phospholamban serine-16; Control + PK Inhibitor, no CCM, 30 sec, average): 9.4 | P-PLB serine-16 (phospholamban serine-16; [6]): 6.8 and 9.7 | response of serine-16 phosphorylation to CCM in presence of kinese inhibitor (phospholamban serine-16; HF dog tissue homogenate): responded close to usual | P-PLB serine-16 (phospholamban serine-16; PK Inhibitor + CCM delivered for 30 sec): 14.3 and 13.0 | P-PLB serine-16 (phospholamban serine-16; [7]): 22.7 | platelet aggregation induced by collagen or ADP (platelet aggregation): inhibits platelet aggregation | P-PLB threonin-17 [3, 4]: 8.9 and 9.5 | P-PLB threonin-17, Av [3, 5]: 9.0 | P-PLB threonin-17 [3, 6]: 8.2 | response of threonin-17 phosphorylation to CCM in presence of kinese inhibitor ([3]; HF dog tissue homogenate): reduced and delayed response | P-PLB threonin-17 ([3]; PK Inhibitor + CCM delivered for 10 sec): 14.6 and 9.9 and 8.7 | P-PLB threonin-17 ([3]; PK Inhibitor + CCM delivered for 20 sec): 8.3 and 15.0 | P-PLB threonin-17, Av [3, 7]: 15.0
